{"source": "patent US10399972B2", "about": "“Tricyclic compounds as inhibitors of mutant IDH enzymes” (Merck Sharp & Dohme Corp., priority 2015, dated 2019)", "data": [{"target": "R132H mutant IDH1 enzyme (Homo sapiens (Human), UniProt O75874, R132H)", "sequence (O75874 whole entry R132H)": "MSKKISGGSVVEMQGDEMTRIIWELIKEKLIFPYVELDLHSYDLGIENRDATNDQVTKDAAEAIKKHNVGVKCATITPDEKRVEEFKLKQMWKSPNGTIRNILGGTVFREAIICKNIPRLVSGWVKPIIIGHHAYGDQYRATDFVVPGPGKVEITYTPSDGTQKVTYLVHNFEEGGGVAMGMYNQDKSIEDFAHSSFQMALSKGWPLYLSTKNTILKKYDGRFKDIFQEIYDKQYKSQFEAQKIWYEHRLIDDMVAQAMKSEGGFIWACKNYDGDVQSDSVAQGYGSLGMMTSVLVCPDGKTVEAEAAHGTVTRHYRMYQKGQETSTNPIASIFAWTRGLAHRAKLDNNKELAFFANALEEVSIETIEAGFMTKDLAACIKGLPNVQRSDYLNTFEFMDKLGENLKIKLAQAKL", "assay": "R132H IDH1 Enzymatic Assay", "format": "biochemical", "conditions": "1.5 nM final, 30 min preincubation, 60 min reaction, Kinase-GLO luminescence", "method": "R132H IDH1 Enzymatic Assay\nEach test compound (10 mM stock in DMSO) is diluted in DMSO to make a 10-point, 3-fold dilution series. 125 nL of each dilution or DMSO alone is dispensed to a 384-well Greiner Lumitrac 200 assay plate using an Echo® Liquid Handler. To each well of the plate is added 20 uL of enzyme in assay buffer or assay buffer alone. Assay buffer consists of 50 mM sodium phosphate, pH 7.0, 50 mM magnesium chloride, 50 mM sodium chloride, and 0.01% (w/v) bovine serum albumin. When present, the R132H mutant IDH1 enzyme is at a working concentration of 1.875 nM (final concentration in assay of 1.5 nM). The assay plate is allowed to incubate for 30 minutes at room temperature and 5 uL of 5× substrate mixture (2.5 uM nicotinamide adenine dinucleotide phosphate, 100 uM adenosine diphosphate, 7.5 mM glyceraldehyde-3-phosphate, 7.5 ug/mL of spinach glyceraldehyde-3-phosphate dehydrogenase, 25 nM phosphoglycerate kinase, and 5 mM alpha-ketoglutarate in assay buffer) is added to all wells. The reaction plate is incubated for 60 minutes followed by addition of 25 uL of Promega Kinase-GLO reagent to all wells and 10-minute incubation.\nLuminescence is measured using a PerkinElmer Envision plate reader. The percent activity of each dilution is determined as the ratio of background corrected signal to the background corrected signal of wells receiving only DMSO. IC50 values are determined by fitting percent activity data to a four-parameter logistic dose response equation. The IC50 values of the exemplified compounds are included in Table 8.", "units": {"IC50": "µM"}, "values": [{"compound": "O=C(C1CCN(CC(F)(F)F)CC1)N1Cc2cccnc2Nc2cc(F)c([C@H]3COCCO3)cc21", "note": "[Example 57, (S)-(8-(1,4-dioxan-2-yl)-9-fluoro-5,11-dihydro-6H-benzo[b]pyrido[2,3-e][1,4]diazepin-6-yl)(1-(2,2,2-trifluoroethyl)piperidin-4-yl)methanone]", "IC50": 0.0122}, {"compound": "O=C(C1CCN(CC(F)(F)F)CC1)N1Cc2cccnc2Nc2cc(F)ccc21", "note": "[Example 74, (9-Fluoro-5,11-dihydro-6H-benzo[b]pyrido[2,3-e][1,4]diazepin-6-yl)(1-(2,2,2-trifluoroethyl)piperidin-4-yl)methanone]", "IC50": 0.174}, {"compound": "O=C(C1CCN(CC(F)(F)F)CC1)N1Cc2cc(F)cnc2Nc2cc(F)c(N3CC4(CCCOC4)C3)cc21", "note": "[Example 21, (3,9-difluoro-8-(6-oxa-2-azaspiro[3.5]nonan-2-yl)-5,11-dihydro-6H-benzo[b]pyrido[2,3-e][1,4]diazepin-6-yl)(1-(2,2,2-trifluoroethyl)piperidin-4-yl)methanone]", "IC50": 0.0045}, {"compound": "CC(C)O[C@H]1CC[C@H](C(=O)N2Cc3cc(F)cnc3Nc3cc(F)c([C@@H]4COCCO4)cc32)OC1", "note": "(single isomer, unassigned) [Example 36]", "IC50": 0.0237}, {"compound": "O=C(C1CCN(CC(F)(F)F)CC1)N1Cc2cccnc2Nc2cc(F)c(N3[C@@H]4CO[C@H]5[C@@H]4OC[C@H]53)cc21", "note": "[Example 28, (9-fluoro-8-((3R,3aR,6R,6aR)-hexahydro-3,6-epiminofuro[3,2-b]furan-7-yl)-5,11-dihydro-6H-benzo[b]pyrido[2,3-e][1,4]diazepin-6-yl)(1-(2,2,2-trifluoroethyl)piperidin-4-yl)methanone]", "IC50": 0.0276}, {"compound": "CC(C)O[C@H]1CC[C@H](C(=O)N2Cc3cccnc3Nc3cc(F)c(N4C[C@@H]5C[C@H]4CO5)cc32)OC1", "note": "[Example 64, (8-((1S,4S)-2-Oxa-5-azabicyclo[2.2.1]heptan-5-yl)-9-fluoro-5H-benzo[b]pyrido[2,3-e][1,4]diazepin-6(11H)-yl)((2R,5S)-5-isopropoxytetrahydro-2H-pyran-2-yl)methanone]", "IC50": 0.0463}, {"compound": "CC(C)OC1CC[C@H](C(=O)N2Cc3cc(F)cnc3Nc3ccc(N4C[C@@H]5CC[C@H]4CO5)cc32)OC1", "note": "(stereo in doubt) [Example 49, (8-((1S,4S)-2-oxa-5-azabicyclo[2.2.2]octan-5-yl)-3-fluoro-5,11-dihydro-6H-benzo[b]pyrido[2,3-e][1,4]diazepin-6-yl)((2R,5R)-5-isopropoxytetrahydro-2H-pyran-2-yl)methanone]", "IC50": 0.012}, {"compound": "CC(C)O[C@H]1CC[C@H](C(=O)N2Cc3cc(Cl)cnc3Nc3ccc(N4C[C@@H]5CC[C@H]4CO5)cc32)CC1", "note": "[Example 71, (8-((1S,4S)-2-Oxa-5-azabicyclo[2.2.2]octan-5-yl)-3-chloro-5,11-dihydro-6H-benzo[b]pyrido[2,3-e][1,4]diazepin-6-yl)(trans-4-isopropoxycyclohexyl)methanone]", "IC50": 0.03}, {"compound": "C[C@H]1CN(c2ccc3c(c2)N(C(=O)C2CCN(CC(F)(F)F)CC2)Cc2cc(F)cnc2N3)[C@@H](C)CO1", "note": "[Example 11, (8-((2S,5S)-2,5-dimethylmorpholino)-3-fluoro-5,11-dihydro-6H-benzo[b]pyrido[2,3-e][1,4]diazepin-6-yl)(1-(2,2,2-trifluoroethyl)piperidin-4-yl)methanone]", "IC50": 0.0238}, {"compound": "O=C(C1CCN(CC(F)(F)F)CC1)N1Cc2cc(F)cnc2Nc2ccc([C@H]3COCCO3)cc21", "note": "[Example 54, (S)-(8-(1,4-Dioxan-2-yl)-3-fluoro-5,11-dihydro-6H-benzo[b]pyrido[2,3-e][1,4]diazepin-6-yl)(1-(2,2,2-trifluoroethyl)piperidin-4-yl)methanone]", "IC50": 0.0056}, {"compound": "CC(C)O[C@H]1CC[C@H](C(=O)N2Cc3cccnc3Nc3ccc(N4CC5CCC4CO5)c(F)c32)CC1", "note": "(stereo partly drawn) [Example 63, [7-fluoro-8-(2-oxa-5-azabicyclo[2.2.2]oct-5-yl)-5,11-dihydro-6H-pyrido[2,3-b][1,5]benzodiazepin-6-yl](trans-4-isopropoxycyclohexyl)methanone]", "IC50": 0.057}, {"compound": "CC(C)O[C@H]1CC[C@@H](C(=O)N2Cc3cc(F)cnc3Nc3ccc(N4C[C@@H]5C[C@H]4CO5)cc32)CC1", "note": "[Example 19, (8-((1S,4S)-2-oxa-5-azabicyclo[2.2.1]heptan-5-yl)-3-fluoro-5,11-dihydro-6H-benzo[b]pyrido[2,3-e][1,4]diazepin-6-yl)(cis-4-isopropoxycyclohexyl)methanone]", "IC50": 0.006}, {"compound": "CC(C)O[C@H]1CC[C@H](C(=O)N2c3cc(N4CCOCC4)ccc3Nc3ncccc3C2C)CC1", "note": "(stereo partly drawn) [Example 66, (Trans-4-isopropoxycyclohexyl)(5-methyl-8-morpholino-5,11-dihydro-6H-benzo[b]pyrido[2,3-e][1,4]diazepin-6-yl)methanone]", "IC50": 0.0719}, {"compound": "O=C(C1CCN(CC(F)(F)F)CC1)N1Cc2cc(F)cnc2Nc2cc(F)c(Cl)cc21", "note": "[Example 5, (8-Chloro-3,9-difluoro-5,11-dihydro-6H-benzo[b]pyrido[2,3-e][1,4]diazepin-6-yl)(1-(2,2,2-trifluoroethyl)piperidin-4-yl)methanone]", "IC50": 0.0113}, {"compound": "O=C(C1CCN(CC(F)(F)F)CC1)N1Cc2cc(F)cnc2Nc2cc(F)c(N3C[C@@H]4C[C@H]3CO4)cc21", "note": "[Example 20, (8-((1S,4S)-2-oxa-5-azabicyclo[2.2.1]heptan-5-yl)-3,9-difluoro-5,11-dihydro-6H-benzo[b]pyrido[2,3-e][1,4]diazepin-6-yl)(1-(2,2,2-trifluoroethyl)piperidin-4-yl)methanone]", "IC50": 0.0067}, {"compound": "O=C(C1CCN(CC(F)(F)F)CC1)N1Cc2cc(F)cnc2Nc2ccc(N3CC4CCC3CO4)cc21", "note": "(single isomer, unassigned) [Example 9, (8-(2-oxa-5-azabicyclo[2.2.2]octan-5-yl)-3-fluoro-5,11-dihydro-6H-benzo[b]pyrido[2,3-e][1,4]diazepin-6-yl)(1-(2,2,2-trifluoroethyl)piperidin-4-yl)methanone]", "IC50": 0.0217}, {"compound": "CC(C)O[C@H]1CC[C@H](C(=O)N2Cc3cc(F)cnc3Nc3ccc(N4CC5CCC4CO5)cc32)CC1", "note": "(single isomer, unassigned) [Example 14, [3-fluoro-8-(2-oxa-5-azabicyclo[2.2.2]oct-5-yl)-5,11-dihydro-6H-pyrido[2,3-b][1,5]benzodiazepin-6-yl][trans-4-(propan-2-yloxy)cyclohexyl]methanone]", "IC50": 0.0443}, {"compound": "CC(C)OC1CCC(C(=O)N2c3cc(Cl)ccc3Nc3ncccc3C2C)CC1", "note": "(stereo not drawn) [Example 65, (8-Chloro-5-methyl-5,11-dihydro-6H-benzo[b]pyrido[2,3-e][1,4]diazepin-6-yl)(trans-4-isopropoxycyclohexyl)methanone]", "IC50": 0.106}, {"compound": "Cc1cc2c(cc1N1C[C@H]3CC[C@@H]1CO3)N(C(=O)[C@H]1CC[C@H](OC(C)C)CC1)Cc1cccnc1N2", "note": "[Example 60, (trans-4-isopropoxycyclohexyl){9-methyl-8-[(1R,4R)-2-oxa-5-azabicyclo[2.2.2]oct-5-yl]-5,11-dihydro-6H-pyrido[2,3-b][1,5]benzodiazepin-6-yl}methanone]", "IC50": 0.0259}, {"compound": "CO[C@H]1C[C@H]2CC[C@@H](C1)N2c1ccc2c(c1)N(C(=O)[C@H]1CC[C@H](OC(C)C)CO1)Cc1cc(F)cnc1N2", "note": "[Example 39, (3-fluoro-8-((1R,3S,5S)-3-methoxy-8-azabicyclo[3.2.1]octan-8-yl)-5,11-dihydro-6H-benzo[b]pyrido[2,3-e][1,4]diazepin-6-yl)((2R,5S)-5-isopropoxytetrahydro-2H-pyran-2-yl)methanone]", "IC50": 0.0104}, {"compound": "O=C(C1CCN(CC(F)(F)F)CC1)N1Cc2cc(F)cnc2Nc2ccc(N3C[C@@H]4C[C@H]3CO4)cc21", "note": "[Example 6, (8-((1S,4S)-2-Oxa-5-azabicyclo[2.2.1]heptan-5-yl)-3-fluoro-5,11-dihydro-6H-benzo[b]pyrido[2,3-e][1,4]diazepin-6-yl)(1-(2,2,2-trifluoroethyl)piperidin-4-yl)methanone]", "IC50": 0.0121}, {"compound": "COc1ccc2c(c1)N(C(=O)[C@H]1CC[C@H](OC(C)C)CC1)C(C)c1cccnc1N2", "note": "(stereo partly drawn) [Example 68, (Trans-4-isopropoxycyclohexyl)(8-methoxy-5-methyl-5,11-dihydro-6H-benzo[b]pyrido[2,3-e][1,4]diazepin-6-yl)methanone]", "IC50": 0.112}, {"compound": "CC(C)O[C@H]1CC[C@H](C(=O)N2Cc3cc(F)cnc3Nc3ccc(N4C[C@H]5COC[C@@H](C4)O5)cc32)OC1", "note": "[Example 41, (8-((1R,5S)-3,9-dioxa-7-azabicyclo[3.3.1]nonan-7-yl)-3-fluoro-5,11-dihydro-6H-benzo[b]pyrido[2,3-e][1,4]diazepin-6-yl)((2R,5S)-5-isopropoxytetrahydro-2H-pyran-2-yl)methanone]", "IC50": 0.021}]}]}
